Assay results as given in patent EP1306084A1, “Compositions for the control of parasitic infestations in fish” (Alpharma AS, priority 1998, dated 1999).

What was measured:
[1] = system: sea lice; test: Oral or bath treatment in freshwater before sea transfer, sea lice counts after natural infestation (Example 6); type: in vivo, Atlantic salmon (Salmo salar)
Experimental: (§1) The treatment dosage was 9 mg hexaflumuron per kg fish per day for 10 days. This is indicated by "Groups/Timepoints" in the figure; • Figure 2 relates to the trial in Example 2 that was carried out on Atlantic salmon (Salmo salar). […] The treatment dosage varied between 3 - 9 mg hexaflumuron and 9- 12 mg fluazuron per kg fish per day for 7 days. This is indicated by "Groups/Timepoints" in the diagram. […] The treated groups are compared to an untreated control group. The treatment dosage was 4 mg hexaflumuron per kg fish per day for 5 days. This is indicated by "Groups/Timepoints" in the figure. Cage 2 = controls, Cage 4-6 = treated groups, 16.6.97 = time point for sea transfer and 5.8.97= controls treated by bathing with deltamethrin; • Figure 4 relates to the trial described in Example 5, which was carried out on sea trout (Salmo trutta). […] The treated groups are compared with an untreated control group. The dosage for oral treatment was 4 mg hexaflumuron per kilo fish per day for 5 days, and 5 ppm hexaflumuron as a 30 minute bath treatment. This is indicated by "Groups/Timepoints" in the figure. Cage 1.4 = Controls, cage 1.3 = Oral treatment, cage 1.2 = Bath treatment. […] The treated groups are compared with an untreated control group, and one group that has been treated orally with teflubenzuron (10 mg/kg of teflubenzuron per kg fish per day for 7 days). The dosage for oral treatment was 5.6 mg hexaflumuron per kg fish per day for 7 days, and 5 ppm hexaflumuron as a 30 minute bath treatment. […] End of treatment: 22.10.97, Sea transfer: 23.10.97. T1 = 3 weeks post end of treatment, T2 = 5 weeks post end of treatment, T3 = 9 weeks post end of treatment, T4 = 12 weeks post end of treatment; • Figure 6 relates to the trial in Example 6 at time points 4-6, with the same trial parameters as for Figure 5. T5 = 15 weeks post end of treatment, T6 = 17 weeks post end of treatment. Cage 3 and 4 were treated by bath with deltamethrin after sea lice counting at T4 (12.01.98); • Figure 7 relates to the trial described in Example 7 where salmon were injected on 17.12.97 with two formulations (groups L and R, respectively) of hexaflumuron and a vaccine formulation without hexaflumuron (control). […] The vaccinated fish was transferred to sea water on 09.01.98; • Figure 8 summarises the trial of Example 8 where salmon smolts were injected with 9 different active substances on 08.07.98. Only results for Moxidectin (Mox.), Lufenuron (Luf.) and hexaflumuron in Apoject 1-Fural (Hex.Apo) and in animal oil (Hex.oil) are shown, and • Figure 9 summarises the trial described in Example 10 where salmon were injected on 03.12.97 with 3 different formulations of hexaflumuron (Hexa 1, Hexa 2 and Hexa 3). The fish were transferred to sea water at T0.
About 400 Atlantic salmon (Salmo salar) of an average weight of 80 grams were divided into four groups of 100 fish in each. One group was given an oral treatment of 5.6 mg hexaflumuron per kg fish each day for 7 days before sea transfer. Group two was given a bath treatment with a dosage of 5 ppm (mg/l) hexaflumuron for 30 minutes with a formulation containing 10% hexaflumuron. Group three was given oral treatment with a daily dosage of 10 mg teflubenzuron per kg fish for 7 days, while the last group remained untreated. […] Every third week, lice from 10 fish in each cage were counted to assess if there was a difference in the number of lice between the cages. […]

[2] = system: sea lice; test: Injection of 9 active substances, protective effect against sea lice (Example 8); type: in vivo, salmon smolt
Experimental: as §1
In this trial 9 different active substances were tested for protective effect against sea lice. 1,200 salmon smolt were, prior the start of the trial, vaccinated with a commercial vaccine, ALPHA JECT 5100.
One week after sea water transfer the salmon was divided into 12 groups and injected with different formulations of the 9 different active substances. In parallel with the 12 groups, a 13th group comprising 50 fish of the same origin and size was injected with a saline (PBS) solution without active substance. This group served as negative control/reference group in respect of sea lice infestations. The groups were marked by fin cutting and distributed randomly into 3 cages.
The active substances that were used as injection were hexaflumuron, buprofezin, diflubenzuron, fluazuron, lufenuron, ivermectin, doramectin, moxidectin and milbemycin oxime, respectively. All the fish were injected with 0.2 ml of the various injection formulations. Hexaflumuron, buprofezin, fluazuron, lufenuron and diflubenzuron were administered at a dosage of about 50 mg/kg whereas ivermectin, doramectin and moxidectin were administered at a dosage of 0.2 mg/kg (recommended dosage for mammals). […]

[3] = system: sea lice; test: Oral or bath treatment in freshwater before sea transfer, sea lice counts after natural infection (Example 5); type: in vivo, sea trout (Salmo trutta); conditions: bath treatment 2, 5 and 8 weeks after sea transfer
Experimental: (§2) The treatment dosage was 9 mg hexaflumuron per kg fish per day for 10 days. This is indicated by "Groups/Timepoints" in the figure; • Figure 2 relates to the trial in Example 2 that was carried out on Atlantic salmon (Salmo salar). […] The treatment dosage varied between 3 - 9 mg hexaflumuron and 9- 12 mg fluazuron per kg fish per day for 7 days. This is indicated by "Groups/Timepoints" in the diagram. […] The treated groups are compared to an untreated control group. The treatment dosage was 4 mg hexaflumuron per kg fish per day for 5 days. This is indicated by "Groups/Timepoints" in the figure. Cage 2 = controls, Cage 4-6 = treated groups, 16.6.97 = time point for sea transfer and 5.8.97= controls treated by bathing with deltamethrin; • Figure 4 relates to the trial described in Example 5, which was carried out on sea trout (Salmo trutta). […] The treated groups are compared with an untreated control group. The dosage for oral treatment was 4 mg hexaflumuron per kilo fish per day for 5 days, and 5 ppm hexaflumuron as a 30 minute bath treatment. This is indicated by "Groups/Timepoints" in the figure. Cage 1.4 = Controls, cage 1.3 = Oral treatment, cage 1.2 = Bath treatment. […] The treated groups are compared with an untreated control group, and one group that has been treated orally with teflubenzuron (10 mg/kg of teflubenzuron per kg fish per day for 7 days). The dosage for oral treatment was 5.6 mg hexaflumuron per kg fish per day for 7 days, and 5 ppm hexaflumuron as a 30 minute bath treatment. […] End of treatment: 22.10.97, Sea transfer: 23.10.97. T1 = 3 weeks post end of treatment, T2 = 5 weeks post end of treatment, T3 = 9 weeks post end of treatment, T4 = 12 weeks post end of treatment; • Figure 6 relates to the trial in Example 6 at time points 4-6, with the same trial parameters as for Figure 5. […]
About 300 sea trout (Salmo trutta) of an average weight of 160 grams were divided into three groups of 100 fish each. […] Lice from 6-10 fish from each cage were counted every third week to assess whether there was any difference in the number of lice between the cages. […]

[4] = system: sea lice; test: Oral treatment in freshwater before sea transfer, sea lice counts after natural infection (Example 4); type: in vivo, salmon (Salmo salar); conditions: bath treatment, 7 weeks into the trial
Experimental: as §2, with “23.10.97.” for “23.10.97. T1 = 3 weeks post end of treatment, T2 = 5 weeks post end of treatment, T3 = 9 weeks post end of treatment, T4 = 12 weeks post end of treatment; • Figure 6 relates to the trial in Example 6 at time points 4-6, with the same trial parameters as for Figure 5.”
About 2,500 salmon (Salmo salar) of average weight 42 grams were treated orally with a daily dosage of 4 mg hexaflumuron per kilo fish for 5 days. […] The number of lice on 10 fish from each cage were counted every third week to check if there was any difference in the number of lice in the cages. […]

[5] = system: sea lice; test: Oral treatment (coated feed / Akvaletter) of naturally sea lice infected salmon in minicages (Example 2); type: in vivo, Atlantic salmon (Salmo salar); conditions: fluazuron groups, 9.0-12.0 mg per day, 7 days
Experimental: as §1, with “T0. […]” for “T0.”

## O=C(NC(=O)c1c(F)cccc1F)Nc1cc(Cl)c(F)c(Cl)c1F [teflubenzuron]
[1]; oral 10 mg teflubenzuron per kg fish daily for 7 days, at each assessment
  number of lice compared with untreated control group: same number of lice as the untreated control group
[1]; summary statement referring to Example 6
  protection against new establishments by sea lice: do not protect

## O=C(NC(=O)c1c(F)cccc1F)Nc1cc(Cl)c(OC(F)(F)C(F)C(F)(F)F)cc1Cl (centres unmarked) [lufenuron, reference compound]
[2]; T2, 40 days after injection, hexaflumuron, lufenuron about 50 mg/kg, moxidectin 0.2 mg/kg
  protection against sea lice: showed protection
[2]; T3, 70 days after injection, formulated in Apoject 1-Fural, about 50 mg/kg, control group 5.6
  lice on average: 0.6
[2]; lufenuron in Apoject 1-Fural, about 50 mg/kg
  good protection against lice until T5, time after injection: 128 days
[2]; other active substances, summary of trial
  protection following injection: good protection for an extended period of time

## CC1(C)[C@H](C(=O)O[C@H](C#N)c2cccc(Oc3ccccc3)c2)[C@@H]1C=C(Br)Br [deltamethrin, reference compound]
[1]; bath treatment after T4
  bath treatment of control and teflubenzuron groups, number of lice: successful
[3]
  bath treatment of control fish, number of lice: successful
[4]
  bath treatment of control fish to reduce the number of pre-adult lice: successful

## O=C(NC(=O)c1c(F)cccc1F)Nc1ccc(Cl)cc1 [diflubenzuron, reference compound]
[2]; summary statement referring to Example 8
  protection against new establishments by sea lice: do not protect

## O=C(NC(=O)c1c(F)cccc1F)Nc1ccc(Cl)c(Oc2ncc(C(F)(F)F)cc2Cl)c1 [fluazuron, reference compound]
[5]
  reduction as compared to the control group: 25%
